Data set [1] deals with Sphaerotheca fuliginea. Nature of the data set: Example L: in vivo test on Sphaerotheca fuliginea (powdery mildew on cucumber/protective). As to conditions: Podosphaera fuliginea, 168 h, cucumber, protective, assessment 7 days after inoculation, read-out: % Wirkungsgrad. A digest of the protocol:
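Young cucumber plants sprayed at stated dosage with compound in DMF/alkylaryl polyglycol ether emulsifier diluted in water; inoculated with S. fuliginea spores one day later. Kept in greenhouse at 70% relative humidity, 23° C; protective activity assessed 7 days after inoculation.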

Data set [2] concerns Alternaria solani. Nature of the data set: Example M: in vivo test on Alternaria solani (leaf blotch disease/tomato/protective). As to conditions: 168 h, tomato, protective, 500 ppm active substance, assessed 7 days after inoculation, read-out: % Wirkungsgrad (activity level). A digest of the protocol:
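Protective test: young tomato plants sprayed with active substance (in DMF with alkylaryl polyglycol ether emulsifier, diluted in water) at the stated dosage, then inoculated with Alternaria solani. Disease assessed 7 days after inoculation.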

The test system of data set [3] is Plasmopara viticola. As to the kind of experiment: Example N: in vivo test on Plasmopara viticola (downy mildew, vine/protective). As to conditions: 144 h, vine, protective, assessment 6 days after inoculation, read-out: % Wirkungsgrad. The method, then: Emulsifier: 1 part by weight alkylaryl polyglycol ethers For the preparation of a suitable active substance preparation, 1 part by weight of active substance is mixed with the stated quantities of solvent and emulsifier and the concentrate is diluted to the desired concentration with water. For the testing for protective activity, young plants are sprayed with the active substance preparation at the stated application dosage. […] The plants are then moistened and placed in an incubation cabin for 1 day. 6 days after the inoculation, the assessment takes place.

Data set [4] deals with Venturia inaequalis. As to the kind of experiment: Example O: in vivo test on Venturia inaequalis (apple scab/protective). As to conditions: 240 h, protective, assessment 10 days after inoculation, read-out: % Wirkungsgrad. The essentials:
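Protective test: active substance mixed with solvent and alkylaryl polyglycol ether emulsifier, diluted with water, and sprayed on young plants at the stated dosage before Venturia inaequalis inoculation. Scab assessed 10 days after inoculation.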

The test system of data set [5] is Botrytis cinerea. Nature of the data set: Example P: in vivo test on Botrytis cinerea (gray mould on bean/protective). The conditions noted are these: 48 h, bean, protective, 250 ppm active substance, assessed 2 days after inoculation, read-out: % Wirkungsgrad (activity level). The essentials: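 Protective test: young bean plants sprayed with the active substance preparation (emulsifier-based concentrate diluted in water) at the stated dosage. Once dry, each leaf received 2 agar pieces bearing Botrytis cinerea. Infection blotch size assessed 2 days after inoculation.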

Data set [6] deals with Fusarium nivale (var. majus). As to the kind of experiment: whole plant or invertebrate. The conditions noted are these: Microdochium nivale, in Triticum aestivum, 120 h, read-out: % Wirkungsgrad (activity level). In kind it is in vivo.
Data set [7] deals with Fusarium graminearum. As to the kind of experiment: whole plant or invertebrate. As to conditions: in Hordeum vulgare, 120 h, read-out: % Wirkungsgrad (activity level). It counts as in vivo.
A short description of data set [8]: physchem.
Data set [9] has as its system Rhizoctonia solani. Nature of the data set: Example W: in vivo test on Rhizoctonia solani (sheath blight in rice/protective). The conditions noted are these: 96 h, rice, protective, 250 ppm active substance, assessed 4 days after inoculation, read-out: % Activity level. As to the method:
Solvent: 28.5 parts by weight acetone Emulsifier: 1.5 parts by weight alkylaryl polyglycol ethers For the preparation of a suitable active substance preparation, 1 part by weight of active substance is mixed with the stated quantities of solvent and emulsifier and the concentrate is diluted to the desired concentration with water. For the testing for protective activity, young rice plants are sprayed with the active substance preparation at the stated application dosage. One day after the treatment, the plants are inoculated with hyphae of Rhizoctonia solani. […] 4 days after the inoculation, the assessment takes place.

Data set [10] relates to Fusarium graminearum. As to the kind of experiment: microbe, parasite or virus in culture. In kind it is cell-based.
Data set [11] relates to Leptosphaeria nodorum. As to the kind of experiment: Example Q: in vivo test on Leptosphaeria nodorum (glume blotch in wheat/protective). The conditions noted are these: Parastagonospora nodorum, 192 h, wheat, protective, assessment 8 days after inoculation, read-out: % Wirkungsgrad. The method, then: (§1) Solvent: 49 parts by weight N,N-dimethylacetamide Emulsifier: 1 part by weight alkylaryl polyglycol ethers For the preparation of a suitable active substance preparation, 1 part by weight of active substance is mixed with the stated quantities of solvent and emulsifier and the concentrate is diluted to the desired concentration with water. For the testing for protective activity, young plants are sprayed with the active substance preparation at the stated application dosage. After drying of the spray coating, the plants are sprayed with spores with a spore suspension of Leptosphaeria nodorum. […] 8 days after the inoculation, the assessment takes place.

Data set [12] has as its system Septoria tritici. Nature of the data set: Example R: in vivo test on Septoria tritici (leaf blotch in wheat/protective). As to conditions: Zymoseptoria tritici, 504 h, wheat, protective, 1000 ppm active substance, assessed 21 days after inoculation, read-out: % Wirkungsgrad (activity level). The method, then: as §1, with “with” for “with spores with”, “Septoria tritici.” for “Leptosphaeria nodorum.”, “21” for “8”

Data set [13] deals with Fusarium proliferatum. Nature of the data set: Example I: production of fumonisin FB1 by Fusarium proliferatum (microtitre plates). In kind it is cell-based. The conditions noted are these: 120 h.
Data set [14] has as its system Aspergillus parasiticus. Nature of the data set: microbe, parasite or virus in culture. In kind it is cell-based. The conditions noted are these: 168 h.
The mark [15] stands for this setting: LogPA (logP of the stated pure compound or, in a mixture, of the main isomer, 1-substituted 3-aryl-1H-pyrazole).
[16] abbreviates: 72 h, read-out: % Inhibition des Pilzwachstums bei 50 μM.
Where [17] appears, read: 168 h, read-out: % Inhibition der DON/AcDON produktion bei 50 μM.
Setting [18] is: Fusarium proliferatum growth, OD 620, 5 days, read-out: % Inhibition des Pilzwachstums bei 50 μM.
Where [19] appears, read: Fusarium proliferatum, 5 days at 20° C., HPLC-MS/MS, read-out: % Inhibition der FB1 produktion bei 50 μM.
The mark [20] stands for this setting: 50 μM, 7 days at 20° C., read-out: Inhibition der Aflatoxin produktion bei 50 μM.
Where [21] appears, read: read-out: % Inhibition des Pilzwachstums bei 50 μM.

Like-named read-outs stand apart in the source and are kept apart here.

As to `CC(C)CC(=O)Nc1cc(-c2cn(CC(F)F)nc2-c2ccc(F)cc2)ccn1` [Compound 238], the pest or weed control at 500 ppm in [1] was determined as 100%; in data set [2], 94%. Moreover, the values for the pest or weed control at 100 ppm in [3] and in [4] were 88% and 98%, respectively. Also, the pest or weed control at 250 ppm in data set [5] was determined as 93%. For the same compound, the pest or weed control at 1000 ppm was 75% in data set [6] and 92% in [7]. Further, the chromatographic logP in data set [8] (LogPA) was found to be 2.63.
With `CC(c1cccc(Cl)c1)n1cc(-c2ccncc2)c(-c2ccc(F)cc2)n1` (stereo not shown) [Compound 101], in [9], the pest or weed control at 250 ppm was 95%. In addition, in [8] (setting [15]), the chromatographic logP amounted to 2.17.
Turning to `CCC(C)n1cc(-c2ccnc(NC(=O)C3CC3)c2)c(-c2ccc(F)cc2)n1` (stereo not shown) [Compound 167], the inhibition at 50 µM in data set [10] (setting [16]) was 100%; in data set [10] (setting [17]), 99%. In addition, the pest or weed control at 500 ppm in data set [1] turned out to be 100%. The pest or weed control at 100 ppm in [4] stood at 89%. The pest or weed control at 250 ppm in [5] came to 100%. Further, the pest or weed control at 1000 ppm in [11] is 92%; in [6] it was 100%; in [7] it was 100%. Also, in data set [8] (LogPA), the chromatographic logP amounted to 2.56.
For the compound `O=C(Nc1cc(-c2cn(CC(F)F)nc2-c2ccc(F)cc2)ccn1)C1CCC1` [Compound 240], the pest or weed control at 500 ppm is 96% in data set [1] and 88% in data set [2]. The pest or weed control at 100 ppm in data set [3] came out at 90%; in data set [4] it was 96%. In addition, the pest or weed control at 250 ppm in data set [5] was found to be 99%. For the same compound, the pest or weed control at 1000 ppm in data set [12] and in [6] was 75% in each case. The compound further returned a chromatographic logP in data set [8] (LogPA) of 2.42.
As to `CCn1cc(-c2ccnc(NC(=O)COC)c2)c(-c2ccc(F)cc2)n1` [Compound 203], the inhibition at 50 µM was found to be 99% in [13] (setting [18]); 100% in data set [13] (setting [19]); 100% in data set [10] (setting [16]); 100% in data set [10] (setting [17]); 100% in [14] (setting [20]); 100% in [14] (setting [21]). Moreover, the pest or weed control at 500 ppm in data set [1] was 95%; in data set [2] it was 93%. In data set [8] (LogPA), this compound yielded a chromatographic logP of 2.2.
Take `COCCn1cc(-c2ccnc(NC(=O)Cc3ccccc3)c2)c(-c2ccc(F)cc2)n1` [Compound 212]: the pest or weed control at 500 ppm in data set [1] amounted to 96%; in data set [2] it was 95%. Besides, the pest or weed control at 100 ppm came out at 83% in data set [3] and 85% in [4]. Besides, the pest or weed control at 250 ppm in data set [5] turned out to be 98%. Moreover, the figures for the pest or weed control at 1000 ppm in data set [11], in data set [12] and in data set [6] were 71%, 71% and 75%, respectively. The chromatographic logP in data set [8] (LogPA) was found to be 2.6.
As to `N#CCCn1cc(-c2ccncc2)c(-c2ccc(F)cc2)n1` [Compound 146], the inhibition at 50 µM in data set [13] (setting [18]) came to 41%; in data set [13] (setting [19]), 100%; in data set [10] (setting [16]), 97%; in [10] (setting [17]) it was 100%; in data set [14] (setting [20]), 100%; in data set [14] (setting [21]), 99%. For the same compound, the pest or weed control at 500 ppm in [1] amounted to 95%; in data set [2] it was 100%. Moreover, the chromatographic logP in [8] (setting [15]) was 0.81.
`CCC(C)n1cc(-c2ccnc(NC(=O)C(C)C)c2)c(-c2ccc(F)cc2)n1` (stereo not shown) [Compound 157]: the inhibition at 50 µM in data set [10] (setting [16]) and in data set [10] (setting [17]) was 100% throughout. Besides, the pest or weed control at 500 ppm in [1] was 100%; in data set [2], 94%. Moreover, in [4], the pest or weed control at 100 ppm worked out at 94%. In data set [5], the pest or weed control at 250 ppm came to 78%. Moreover, the pest or weed control at 1000 ppm in [12] was found to be 100%; in data set [6] it was 88%; in data set [7], 100%. In data set [8] (setting [15]), the chromatographic logP was found to be 2.82.
Take `CC(C)Cn1cc(-c2ccnc(NC(C)C)n2)c(-c2ccc(F)cc2)n1` [Compound 174]: the pest or weed control at 500 ppm in data set [1] and in data set [2] was 100% each time. Further, the pest or weed control at 100 ppm came out at 70% in data set [3] and 100% in data set [4]. Besides, the pest or weed control at 250 ppm in data set [5] came to 80%; in data set [9] it was 93%. The pest or weed control at 1000 ppm in data set [11] was determined as 93%; in data set [12], 90%. Further, the chromatographic logP in data set [8] (LogPA) worked out at 2.39.
With `O=C(Nc1cc(-c2cn(CC3CC3)nc2-c2ccc(F)cc2)ccn1)C1CC1` [Compound 224], the inhibition at 50 µM in data set [13] (setting [18]) was 99%; in data set [13] (setting [19]), 100%; in data set [10] (setting [16]), 100%; in data set [10] (setting [17]), 92%. Moreover, the pest or weed control at 500 ppm is 99% in data set [1] and 70% in data set [2]. For the same compound, the pest or weed control at 100 ppm in data set [4] stood at 71%. For the same compound, in data set [5], the pest or weed control at 250 ppm stood at 99%. In addition, the pest or weed control at 1000 ppm in [12], in data set [6] and in data set [7] was 100% in each case. This compound came in with a chromatographic logP in data set [8] (LogPA) of 2.29.
Regarding `CCC(C)n1cc(-c2ccnc(NC(=O)CC3CC3)c2)c(-c2ccc(F)cc2)n1` (stereo not shown) [Compound 159], the inhibition at 50 µM in [10] (setting [16]) came to 102%; in [10] (setting [17]), 99%. The values for the pest or weed control at 500 ppm in data set [1] and in data set [2] were 97% and 94%, respectively. The pest or weed control at 100 ppm in data set [4] came out at 97%. Moreover, the pest or weed control at 250 ppm in [5] is 98%. For the same compound, the pest or weed control at 1000 ppm in [12] amounted to 100%; in data set [6] it was 75%; in [7], 100%. Moreover, in data set [8] (setting [15]), the chromatographic logP was determined as 3.
Turning to `CCC(=O)Nc1cc(-c2cn(CC(C)C)nc2-c2ccc(F)cc2)ccn1` [Compound 155], the inhibition at 50 µM in [13] (setting [18]) amounted to 97%; in [13] (setting [19]), 100%; in data set [10] (setting [16]), 97%; in data set [10] (setting [17]) it was 100%; in data set [14] (setting [20]), 100%; in [14] (setting [21]), 100%. Besides, the pest or weed control at 500 ppm worked out at 95% in [1] and 100% in [2]. In data set [5], the pest or weed control at 250 ppm is 99%. In addition, in data set [7], the pest or weed control at 1000 ppm was determined as 88%. Further, the chromatographic logP in [8] (setting [15]) turned out to be 2.51.
Consider `CC(c1cnc(Cl)s1)n1cc(-c2ccncc2)c(-c2ccc(F)cc2)n1` (stereo not shown) [Compound 176], for which the pest or weed control at 500 ppm in data set [2] was 100%. Also, in data set [9], the pest or weed control at 250 ppm is 97%. Moreover, the chromatographic logP in [8] (LogPA) worked out at 1.82.

Source of the values: patent US20110183978A1, “Phenylpyri(mi)dinylazoles” (Bayer CropScience AG, priority 2009, published 2011).
